{
  "source": "patent US20140135272A1",
  "about": "“NOVEL ZINC FINGER-LIKE PEPTIDE COMPOSITIONS AS POTENT AGENTS IN CANCER PREVENTION AND TREATMENT” (priority 2011, published 2014)",
  "format_in_all_cases": "in vivo, nude mice",
  "key": {"[1]": {"system": "malignant melanoma B 16F10", "assay": "Example 4: peptide variants pre-injected, then malignant melanoma B16F10 inoculation, tumor volumes and death", "details": "peptide 2 mM, 100 μl i.v. per week for 2 weeks before B16F10 inoculation", "experimental": "(§1) In the following examples, 8-week nude mice were used as host subjects to perform in vivo experiments. The nude mice were placed in room temperature and suitable humidity, and supplied with sterile water and standard food for 2 consecutive weeks before performing experiments. Then, the nude mice were injected with zinc finger-like peptide and tumor cells. The detailed processes for the experiments are described as follows.\n(§2) First, manually synthesized zinc finger-like peptide (Genemed Synthesis Inc., San Antonio, Tex., USA) was resuspended in degassed purified water to obtain 1-5 mM of zinc finger-like peptide solution (100 μl). Herein, the solution for suspending the zinc finger-like peptide is not particularly limited. Preferably, the zinc finger-like peptide is resuspended in degassed purified water, in order to prevent the self-polymerization of the zinc finger-like peptide and loss its ability to inhibit tumor cell growth.\nNude mice received an intravenous injection of peptide (2 mM, 100 μl) via tail veins per week for 2 consecutive weeks, followed by inoculating malignant melanoma B 16F10 (2 million cells/100 μl PBS) at both the right and left flanks. The tumor volumes (mm^3) were observed daily during the whole experiment.\n(§3) In the present experimental group, zinc finger-like peptide with sequence shown in SEQ ID NO: 1 was injected into nude mice.\nIn the present experimental group, zinc finger-like peptide with sequence shown in SEQ ID NO: 1, in which the fifth amino acid, serine was phosphorylated, and injected into nude mice.\nIn the present experimental group, zinc finger-like peptide with sequence shown in SEQ ID NO: 6 was injected into nude mice.\nIn the present experimental group, zinc finger-like peptide with sequence shown in SEQ ID NO: 6, in which the fourth amino acid serine was phosphorylated, and injected nude mice.\nIn the control group, H2O (100 μl) was injected into nude mice."}, "[2]": {"system": "BCC cells", "assay": "Example 2: peptide pre-injection plus boost injection, BCC cell inoculation, tumor volumes", "details": "peptide 2 mM, 100 μl i.v. per week for 3 weeks before BCC inoculation; boost per week for 3 weeks 2 months later; vs H2O control", "experimental": "as §1, §2, §3\nNude mice were injected with an intravenous injection of peptide (2 mM, 100 μl PBS) via tail veins per week for 3 consecutive weeks, followed by inoculating BCC cells (2 million cells/100 μl PBS) at both the right and left flanks. 2 months later, boost injection of peptide was carried out per week for 3 consecutive weeks. […]"}, "[3]": {"system": "basal cell carcinoma (BCC) cells", "assay": "Example 1: peptide pre-injection, then basal cell carcinoma (BCC) cell inoculation, tumor volumes", "details": "peptide 2 mM, 100 μl PBS i.v. tail vein per week for 3 weeks before BCC inoculation at both flanks; vs PBS control", "experimental": "as §1, §2\nHerein, zinc finger-like peptide with sequence shown in SEQ ID NO: 2 was injected into nude mice.\nIn particularly, nude mice were injected with an intravenous injection of peptide (2 mM, 100 μl phosphate-buffered saline or PBS) via tail veins per week for 3 consecutive weeks, followed by inoculating basal cell carcinoma (BCC) cells (2 million cells/100 μl PBS) at both the right and left flanks. […]"}, "[4]": {"system": "breast carcinoma MDA-MB-435s", "assay": "Example 8: breast carcinoma MDA-MB-435s inoculated first, peptide treatment from the 70th day, tumor volumes", "details": "peptide 2 mM, 100 μl per week for 4 weeks from the 70th day", "experimental": "as §1, §2\nIn the present experimental group, zinc finger-like peptide with sequence shown in SEQ ID NO: 2 was injected subcutaneously into nude mice.\nNude mice received an injection of breast carcinoma MDA-MB-435s (2 million cells/100 μl PBS) […] at both the right and left flanks on the […] day, followed by injecting peptide (2 mM, 100 μl) per week for 4 consecutive weeks from the 70th day. The tumor volumes (mm^3) were observed daily during the whole experiment.\nThe process of the present control group was the same as that of the experimental group, except that the zinc finger-like peptide of the experimental group was substituted with PBS buffer (100 μl) in the present control group."}, "[5]": {"system": "BCC cells", "assay": "Example 5: expression plasmid injection, then BCC cell inoculation, tumor volumes", "details": "expression plasmid 100 μl via tail veins per week for 2 weeks before BCC inoculation; vs vector containing EGFP only", "experimental": "as §1\nThe cDNA of zinc finger-like peptide was inserted into vector pCR3.1/CMV to form a zinc finger-like peptide expression plasmid, wherein the zinc finger-like peptide was connected to the c-terminal of EGFP.\nIn the present experimental group, the zinc finger-like peptide expression plasmid containing DNA sequence for expressing the zinc finger-like peptide (SEQ ID NO: 4) (100 μl) was injected into nude mice via tail veins per week for 2 consecutive weeks, to express zinc finger-like peptide. Then, BCC cells (2 million cells/100 μl medium) were inoculated into nude mice at both the right and left flanks. The tumor volumes (mm^3) were observed daily during the whole experiment.\nThe process of the present experimental group was the same as that of the experimental group 1, except that the DNA sequence shown in SEQ ID NO: 4 was substituted with DNA sequence shown in SEQ ID NO: 7. […]"}},
  "note": "“Also recorded” adds a separate entry of the source. Square brackets hold non-standard residues; d marks the D form. Ends that are not written are not given here. pS = N[C@@H](COP(=O)(O)O)C(=O)O",
  "data": [
    {"molecule": "SEQ ID NO: 1, in which the fifth amino acid, serine was phosphorylated: SEQ ID NO: 1 (RRSSSCK) with the fifth amino acid, serine, phosphorylated (RRSS[pS]CK)", "values": [
      {"measurement": "day on which the nude mice died", "setting": "[1]", "result": 35, "unit": "days"}
    ]},
    {"molecule": "MSSRRSSGCKYCEQD [SEQ ID NO: 5, zinc finger-like peptide with serine mutation]", "values": [
      {"measurement": "tumor growth (tumor volumes)", "setting": "[2]", "result": "the therapeutic effect of the zinc finger-like peptide is decreased; also recorded: still has better treatment effect than H2O"}
    ]},
    {"molecule": "SEQ ID NO: 6, in which the fourth amino acid serine was phosphorylated: SEQ ID NO: 6 (RSSSCK) with the fourth amino acid serine phosphorylated (RSS[pS]CK)", "values": [
      {"measurement": "day on which the nude mice died", "setting": "[1]", "result": 35, "unit": "days"}
    ]},
    {"molecule": "MSSRRSSSCKYCEQDFRAHTQKNAATPFLAN [SEQ ID NO: 2, zinc finger-like peptide, manually synthesized]", "values": [
      {"measurement": "tumor growth (tumor volumes)", "setting": "[3]", "result": "inhibited the growth of skin cancer cell on nude mice"},
      {"measurement": "day from which tumor volumes were significantly increased", "setting": "[4]; MDA-MB-435s inoculated first", "result": 89, "unit": "days"},
      {"measurement": "maximum tumor volumes", "setting": "[4]; observed on the 100th day", "result": 1000, "unit": "mm^3"},
      {"measurement": "tumor volumes reduced to", "setting": "[4]; on the 113th day, after the maximum", "result": 50, "unit": "%"},
      {"measurement": "tumor cell growth terminated compared to the control group", "setting": "[4]; vs PBS control group", "result": 75, "unit": "%"}
    ]},
    {"molecule": "RSSSCK [SEQ ID NO: 6, zinc finger-like peptide, called cysteine deletion]", "values": [
      {"measurement": "day on which the nude mice died", "setting": "[1]", "result": 31, "unit": "days"}
    ]},
    {"molecule": "atgagcagca gaaggtcgtc ttcttgtaaa tattgtgaac aggacttccg agcacacaca cagaagaatg cggccacacc cttcctagcc aac (nucleic acid, expressed or natural sequence) ATGAGCAGCAGAAGGTCGTCTTCTTGTAAATATTGTGAACAGGACTTCCGAGCACACACACAGAAGAATGCGGCCACACCCTTCCTAGCCAAC", "values": [
      {"measurement": "tumor growth (tumor volumes)", "setting": "[5]", "result": "the growth of tumor cells can be inhibited and the volume thereof can be reduced"}
    ]},
    {"molecule": "atgagcagca gaaggtcgtc tggctgtaaa tattgtgaac aggacttccg agcacacaca cagaagaatg cggccacacc cttcctagcc aac (nucleic acid, chemistry not given here) ATGAGCAGCAGAAGGTCGTCTGGCTGTAAATATTGTGAACAGGACTTCCGAGCACACACACAGAAGAATGCGGCCACACCCTTCCTAGCCAAC", "values": [
      {"measurement": "tumor growth (tumor volumes)", "setting": "[5]", "result": "can slightly inhibit the growth of the tumor cells"}
    ]}
  ]
}
